Assay results taken from patent US5786332A, “Cytokine restraining agents and methods of use in pathologies and conditions associated with altered cytokine levels” (Trega Biosciences, Inc., priority 1995, dated 1998).

Legend:
Type in all cases: in vivo
Balb/c mice = assay: Arachidonic acid-induced ear swelling; settings: 100 μg/mouse IP 30 min before AA; 60 min after AA
Description: Experiments were performed using female Balb/c mice weighing 18-23 grams. Saline or 100 μg EX-2 or EX-3 was administered IP, 30 min prior to topical application of arachidonic acid (AA). A 10 μl pipet was used to apply 10 μl AA solution (100 mg/ml ethanol; Calbiochem-Novabiochem; San Diego Calif.) to the inner and outer surfaces of the right ear of each mouse. Ten μl ethanol, alone, was applied to the inner and outer surface of the left ear of each mouse.
Ear thickness was measured with a hand-held spring loaded caliper immediately before and 60 min after AA application. Increase in ear thickness was calculated by subtracting the change observed in the control ear from the change observed in AA-treated ear. The value for each group (saline and control) is the average of the swelling observed in the individual mice in each group. The percent reduction of swelling is based on the swelling observed in the saline control group.

Sprague-Dawley rats [1] = assay: Streptozotocin-induced diabetes, plasma glucose; settings: STZ 65 mg/kg iv; EX-2 150 μg/kg every 8 hr for 72 hr
Description: B. Induced Diabetes: Male Sprague-Dawley rats were given 65 mg/kg of streptozotocin (STZ) intravenously through the tall vein. Rats were divided into two groups. The first group was administered EX-2, 150 μg/kg every 8 hr for 72 hr and the second group was a control. Blood samples were withdrawn under ether anesthesia every 8 hr for the first 72 hr, then every 12 hr or 24 hr until the end of the observation period. Plasma samples were assayed for glucose using a glucose assay kit (Trinder, Sigma Chemical Co.). As shown in Table VI below EX-2 effect a 72% reduction in blood glucose levels.

Sprague-Dawley rats [2] = assay: Disuse deconditioning (tail suspension, 14 days); settings: 1 or 5 μg/kg IP twice daily
Description: Adult male Sprague-Dawley rats (355-365 g) were used in this study. Animals were housed individually in standard rat cages and were acclimated on a treadmill for 4 days. The next day, a baseline tail bleed was performed, followed by a maximal treadmill stress test the day after. The day following the stress test, the animals were divided into the appropriate treatment and control groups and the animals were suspended by their tails in suspension cages, which simulates weightlessness and, therefore, deconditions the animals. Another group of control animals was placed in standard rat cages with grated flooring similar to that utilized in the suspension cages. All animals were housed one per cage and supplied with food and water ad libitum. Body weights and food consumptions were measured daily. Animals received twice daily IP injections of 1 μg/kg or 5 μg/kg body weight of EX-2 (treated), or 1 ml/kg body weight of saline (control). On day 10, all animals were stress tested on the treadmill until they reached exhaustion. Data on maximum VO2 and running time were collected and compared to pre-suspension results. On day 14, all animals were sacrificed, and blood, tissues, and organs were collected for further analysis. All procedures and tests were performed blind to avoid researcher subjectivity. Statistical significance (p<0.05) between groups was evaluated by ANOVA with Student-Newman-Keuls test for multiple comparisons. All data are reported as the mean ± standard error (SE).
All of the animals were subjected to the stress tests, which measured exercise time and maximal VO2. As well, levels of the oxidative enzyme soleus citrate synthase and tibia bone density were measured.
Soleus citrate synthase was attenuated by 50%.

Sprague-Dawley rats [3] = assay: Cyclosporine-induced nephrotoxicity
Source text: B. Cyclosporine-Induced Nephrotoxicity: This experiment as performed to ascertain if EX-2 can mitigate the reduction in glomerular filtration rate (GFR) and renal blood flow, as well as the dysfunction in fluid and electrolyte homeostasis induced by immunosuppressive treatment with cyclosporine A.
In the first study, male Sprague-Dawley rats (n=43) with a weight range of 240-290 g at the initiation of the cyclosporine A (CsA) treatment were divided into 4 weight matched groups. The groups were as follows: (1) Control: no CsA, no EX-2, treatment only with CsA vehicle (PBS) PO and EX-2 vehicle (also PBS) IP; (2) CsA: treatment with CsA (50 mg/kg in PBS administered PO daily at 0830 hr for 9 days) and IP injections of PBS (Ex-2 vehicle); (3) CsA and 50 μg: CsA treatment identical to group 2 with the addition of EX-2 (50 μg/kg IP administered daily at 0800 and 1700 hr in EX-2 vehicle); and (4) CsA and 500 μg: CsA treatment identical to groups 2 and 3, and EX-2 treatment protocol similar to group 3 except that the dose of EX-2 was 500 μg/kg BW. After deep anesthesia was assured, the rats were cannulated in the trachea (PE 240) jugular vein, femoral artery, and bladder (PE 50 for the previous 3 cannulations).After cannulation, infusion of ^3 H-inulin was initiated 50 min prior to the measurement period to assess glomerular filtration rate, renal blood flow and plasma flow. Renal blood flow was determined by the inulin extraction technique. At the end of the study, the kidneys were removed for histological analysis.
In the second study, male Sprague-Dawley rats (n=31) with a weight range of 240-290 g at the time of initiation of the cyclosporine treatment were divided into 4 weight-matched groups. […] Renal hemodynamics were determined and extracellular fluid volumes were also assessed.
In the second study, where extracellular fluid volumes (ECF) were measured, there were no differences in ECF among control and treatment groups (27.6±1.9 in control, 27.5±1.7 in CsA and vehicle, 26.2±0.9 in CsA+200 μg/kg EX-2, and 25.7±1.4% in CsA+500 μg/kg EX-2). […]

TNF-α = assay: Reduction of LPS-induced TNF levels in mice (IP dosing, ELISA); settings: 30 μg/mouse IP; LPS 5 mg/kg IP; vs untreated control mice
Description: Balb/c female mice weighing approximately 20 g were placed into two groups, a control group and a treated group. Five mg/kg of LPS in 0.9% saline was administered by intraperitoneal (IP) injection into the control mice. Mice in the treated group were first injected IP with 30 μg EX-2 or 150 μg EX-3 in saline, then, one mn after EX-2 or EX-3 was administered, the mice received LPS as described for the control group.
Blood samples were collected from the orbital sinus of treated and control mice at various times up to four hr after LPS was administered. The plasma was separated by centrifugation at 3000×g for 5 min, then diluted with four volumes of 1× phosphate buffer saline (pH 7.4) containing 1% bovine serum albumin. A 100 μl sample of serum was assayed by ELISA for TNF-α (Genzyme; Cambridge Mass.).
The mean (+/-SEM) TNF-α level in six mice from each group was determined and the percent reduction in TNF levels was calculated.

Q: What does the source list for “Ac-Nle-Gln-His-(D)Phe-Arg-(D)Trp-Gly-NH2 [EX-2]”?
A: Reduction in arachidonic acid-induced Ear Swelling (Balb/c mice): 72%; % Reduction of induced increase in Blood Glucose (mg/dl), STZ Diabetes (Sprague-Dawley rats [1]): 72%; % Attenuation of suspension-induced decrease: Soleus Citrate Synthase (Sprague-Dawley rats [2]; day 14): 50%; % Attenuation of suspension-induced decrease: Tibia Bone Density (Sprague-Dawley rats [2]; day 14): 50%; % Attenuation of suspension-induced decrease: Exercise Time (Sprague-Dawley rats [2]; treadmill day 10): 44%; % Attenuation of suspension-induced decrease: Maximal VO2 (Sprague-Dawley rats [2]; treadmill day 10): 80%; Renal blood flow in CsA-treated rats (Sprague-Dawley rats [3]; EX-2 IP twice daily with CsA, both studies): improved blood flow to values not different from control; GFR in CsA-treated rats (Sprague-Dawley rats [3]; compared to CsA and vehicle controls, both studies): significantly increased GFR; Urinary protein excretion in CsA-treated rats (Sprague-Dawley rats [3]; compared to CsA-treated rats): did not increase urinary protein excretion; Reduction in TNF levels (TNF-α): 50%
